{"source": "paper PMC11743026", "about": "“Cortisol regulates neonatal lung development via Smoothened” (Respiratory Research, 2025)", "key": {"[1]": {"molecular_target": "T1, Smoothened (SMO) (Homo sapiens, UniProt Q99835, L112A)", "T1 construct": "purified L112A SMO; also the L112A CRD fragment", "T1 sequence (Q99835 28-787 L112A)": "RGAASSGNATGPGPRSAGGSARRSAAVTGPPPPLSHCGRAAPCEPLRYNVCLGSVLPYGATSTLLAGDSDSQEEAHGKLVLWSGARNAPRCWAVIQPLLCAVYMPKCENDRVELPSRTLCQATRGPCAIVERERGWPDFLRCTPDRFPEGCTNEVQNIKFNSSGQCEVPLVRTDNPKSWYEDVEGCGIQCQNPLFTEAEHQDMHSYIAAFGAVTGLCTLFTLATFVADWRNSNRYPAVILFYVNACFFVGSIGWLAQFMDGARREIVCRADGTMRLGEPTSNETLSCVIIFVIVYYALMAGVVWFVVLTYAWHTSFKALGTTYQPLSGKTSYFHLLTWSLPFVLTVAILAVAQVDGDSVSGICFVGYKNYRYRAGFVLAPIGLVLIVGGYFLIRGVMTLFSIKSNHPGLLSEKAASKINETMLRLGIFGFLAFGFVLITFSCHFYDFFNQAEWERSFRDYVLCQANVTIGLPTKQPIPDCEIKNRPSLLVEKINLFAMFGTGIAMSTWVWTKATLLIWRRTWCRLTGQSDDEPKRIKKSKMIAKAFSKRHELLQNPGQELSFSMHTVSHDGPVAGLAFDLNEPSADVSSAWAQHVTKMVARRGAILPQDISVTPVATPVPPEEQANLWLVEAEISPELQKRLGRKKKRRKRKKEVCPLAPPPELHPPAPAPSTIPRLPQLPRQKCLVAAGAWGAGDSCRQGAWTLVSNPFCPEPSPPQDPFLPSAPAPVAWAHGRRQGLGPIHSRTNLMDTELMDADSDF", "test": "pull-down of purified L112A SMO or CRD on biotinylated cholesterol beads", "type": "binding"}, "[2]": {"molecular_target": "T2, Smoothened (SMO) (Homo sapiens, UniProt Q99835, Y394F)", "T2 construct": "purified Y394F SMO", "T2 sequence (Q99835 28-787 Y394F)": "as the sequence (Q99835 28-787 L112A) above, with A85L, Y367F counted along it", "test": "pull-down of purified Y394F SMO on biotinylated cholesterol beads", "type": "binding"}, "[3]": {"molecular_target": "T2, Smoothened (SMO)", "test": "free cortisol competes with biotinylated cholesterol beads for purified Y394F SMO", "type": "binding"}, "[4]": {"molecular_target": "T3, Smoothened (SMO) (Homo sapiens, UniProt Q99835)", "T3 construct": "full-length SMO expressed in HeLa cells", "T3 sequence (Q99835 28-787)": "as the sequence (Q99835 28-787 L112A) above, with A85L counted along it", "test": "Asp-evoked current in HeLa cells expressing WT SMO; effect lost with L112A", "type": "cell-based"}}}
{"smiles": "CC(C)CCC[C@@H](C)[C@H]1CC[C@H]2[C@@H]3CC=C4C[C@@H](O)CC[C@]4(C)[C@H]3CC[C@]12C", "note": "[Chol, cholesterol]", "values": [{"measurement": "pull-down of purified L112A SMO or CRD on biotinylated cholesterol beads", "setting": "[1]", "value": "The CB remained binding to the purified WT and L112A SMO"}, {"measurement": "pull-down of purified Y394F SMO on biotinylated cholesterol beads", "setting": "[2]", "value": "mutation of the Y394 to F394 did not change CB binding to the SMO"}]}
{"smiles": "C[C@]12CCC(=O)C=C1CC[C@@H]1[C@@H]2[C@@H](O)C[C@@]2(C)[C@H]1CC[C@]2(O)C(=O)CO", "note": "[Cort, cortisol]", "values": [{"measurement": "free cortisol competes with biotinylated cholesterol beads for purified Y394F SM", "setting": "[3]", "value": "cortisol remained inhibiting the CB binding to the mutated SMO in a dose-dependent manner"}]}
{"smiles": "C[C@]12C[C@H](O)[C@H]3[C@@H](CCC4=CC(=O)CC[C@@]43C)[C@@H]1CC[C@@H]2C(=O)CO", "note": "[corticosterone]", "values": [{"measurement": "Asp-evoked current in HeLa cells expressing WT SMO; effect lost with L112A", "setting": "[4]", "value": "The corticosterone inhibition was not observed in the L112A mutant SMO cells"}]}
